# Measured values published in US20230295164A1, “COMPOUNDS HAVING ANTIBACTERIAL ACTIVITY” (The Trustees of Princeton University, priority 2020, published 2023).
# Columns and labels:
# Assay in all cases: MIC testing, broth microdilution in CAMHB
# Type in all cases: cell-based
# [1] = system: Acinetobacter baumannii, ATCC 17978; settings: 18-20 hr, lowest concentration that completely inhibits visible growth; for Compound MICs, Acinetobacter baumannii, ATCC 17978: 37° C.; for MIC: Acinetobacter baumannii, ATCC17978, 37° C., read-out: Compound MICs, Acinetobacter baumannii, ATCC 17978
# Experimental: (§1) Compounds 1-71 were subsequently tested to determine MICs of the compounds relative to the following five species/strains of bacteria: Staphylococcus aureus, NRS384; Enterococcus faecalis, ATCC 51575; Salmonella typhimurium, CMCC 50115; Escherichia coli, ATCC BAA-198; and Acinetobacter baumannii, ATCC 17978. MIC testing of compounds was conducted according to the following protocol.
# (§2) For each strain to be tested, made fresh streaks onto CAMHA from −80° C. glycerol stocks.
# (§3) • CAMHB: Dissolved 22 g of the powder per 1 L of purified water. Mixed well. Autoclaved at 121° C. for 10 minutes. Stored at room temperature (RT) for no more than 1 week. • Saline: Dissolved 9 g of the powder per 1 L of purified water. Mixed well. Autoclaved at 121° C. for 30 minutes. Stored at room temperature (RT) for no more than 1 week.
# (§4) Prepared the stock solutions of the tested compounds.
# (§5) For compounds: • a) Dispensed 20 ul compound to the wells in column 1, and 20 ul DMSO to the wells in column 2 to 12; • b) Diluted the compounds by transferring 10 ul compounds from column 1 to 20 ul DMSO in column 2; mix with pipette. • c) Repeated until column 11 to get 3×serial dilutions. Column 12 was the DMSO control.
# (§6) A multichannel pipette was used to deliver 1 μl of the diluted compound into each well of the corresponding daughter plate.
# (§7) Scraped 4-8 single colonies from an agar plate into 5 ml saline in a 14 ml Falcon conical tube. Vortexed the tube to suspend the bacteria. Adjusted the turbidity to ˜0.2 (corresponding to 0.5 McFarland) with an Ultrospec 10 Cell density meter.
# (§8) The strain suspension was diluted 200-fold in CAMHB medium and dispense into a sterile reservoir. A multichannel pipette was then used to deliver 99 μl of the diluted inocula into each well of the corresponding daughter plate.
# (§9) Incubate the daughter plates at 37° C., 85% humidity for 18-20 hr.
# (§10) A magnifying mirror device was used for ease of scoring the presence or absence of growth in the wells. 96-well micro-plates were photographed.
# [2] = system: Enterococcus faecalis, ATCC 51575; settings: 18-20 hr, lowest concentration that completely inhibits visible growth; for Compound MICs, Enterococcus faecalis, ATCC 51575: 37° C.; for MIC: Enterococcus faecalis, ATCC51575, 37° C., read-out: Compound MICs, Enterococcus faecalis, ATCC 51575
# Experimental: as §1, §2, §3, §4, §5, §6, §7, §8, §9, §10
# [3] = system: Escherichia coli, ATCC BAA-198; settings: 18-20 hr, lowest concentration that completely inhibits visible growth; for Compound MICs, Escherichia coli, ATCC BAA-198: 37° C.; for MIC: Escherichia coli, ATCCBAA198, 37° C., read-out: Compound MICs, Escherichia coli, ATCC BAA-198
# Experimental: as §1, §2, §3, §4, §5, §6, §7, §8, §9, §10
# [4] = system: Salmonella typhimurium, CMCC 50115; settings: 37° C., 18-20 hr, lowest concentration that completely inhibits visible growth; for MIC: Salmonella enterica, read-out: Compound MICs, Salmonella typhimurium, CMCC 50115
# Experimental: as §1, §2, §3, §4, §5, §6, §7, §8, §9, §10
# [5] = system: Staphylococcus aureus, NRS384; settings: 18-20 hr, lowest concentration that completely inhibits visible growth; for Compound MICs, Staphylococcus aureus, NRS384: 37° C.; for MIC: Staphylococcus aureus, NRS384, 37° C., read-out: Compound MICs, Staphylococcus aureus, NRS384
# Experimental: as §1, §2, §3, §4, §5, §6, §7, §8, §9, §10
"Compound MICs, Acinetobacter baumannii, ATCC 17978 [1] [µg/mL]","Compound MICs, Enterococcus faecalis, ATCC 51575 [2] [µg/mL]","Compound MICs, Escherichia coli, ATCC BAA-198 [3] [µg/mL]","Compound MICs, Salmonella typhimurium, CMCC 50115 [4] [µg/mL]","Compound MICs, Staphylococcus aureus, NRS384 [5] [µg/mL]",MIC [1] [µg/mL],MIC [2] [µg/mL],MIC [3] [µg/mL],MIC [4] [µg/mL],MIC [5] [µg/mL],Compound
21.3,0.79,21.3,7.11,2.37,–,–,–,–,–,CC(C)C#Cc1ccc(Cn2ccc3c4c(N)nc(NC5CC5)nc4ccc32)cc1 [Compound 17]
>64,>64,>64,>64,>64,–,–,–,–,–,CC[Si](C#Cc1ccc(CNc2nc(N)nc3ccc4c(ccn4Cc4ccc(C#C[Si](CC)(CC)CC)cc4)c23)cc1)(CC)CC [Compound 27]
–,–,–,–,–,2.37,0.03,7.11,0.79,0.26,Nc1nc(N)c2c(ccc3c2ccn3Cc2cccc(F)c2)n1 [Compound 12]
7.11,≤0.001,>64,2.37,0.79,–,–,–,–,–,Nc1nc(N)c2c(n1)c(Br)cc1c2ccn1Cc1ccc(F)cc1 [Compound 46]
–,–,–,–,–,7.11,2.37,64,> 64,2.37,Nc1nc(NCCO)c2c(ccc3c2ccn3Cc2ccc(-c3ccccc3)cc2)n1 [Compound 2]
–,–,–,–,–,21.3,0.09,21.3,0.26,0.26,COc1ccnc(Cn2ccc3c4c(N)nc(N)nc4ccc32)c1 [Compound 63]
7.11,0.03,21.3,0.26,0.26,–,–,–,–,–,CC(C)c1ccc(Cn2ccc3c4c(N)nc(N)nc4ccc32)nc1 [Compound 59]
>64,0.003,21.3,0.26,0.26,–,–,–,–,–,Nc1nc(N)c2c(ccc3c2ccn3Cc2ccc(B(O)O)cc2)n1 [Compound 51]
2.37,0.01,2.37,0.26,0.03,–,–,–,–,–,Nc1nc(N)c2c(ccc3c2ccn3Cc2cccc(Cl)c2Cl)n1 [Compound 68]
2.37,0.03,7.11,0.26,0.26,–,–,–,–,–,Cc1cc2c(ccn2Cc2ccc(F)cc2)c2c(N)nc(N)nc12 [Compound 55]
>64,0.003,>64,2.37,0.09,–,–,–,–,–,C#Cc1ccc(Cn2ccc3c4c(N)nc(N)nc4c(Br)cc32)cc1 [Compound 47]
0.26,0.01,2.37,0.26,0.09,–,–,–,–,–,COc1cccc(Cn2ccc3c4c(N)nc(N)nc4ccc32)n1 [Compound 67]
–,–,–,–,–,0.79,0.03,2.37,0.26,0.088,CC(C)c1ccc(Cn2ccc3c4c(N)nc(N)nc4ccc32)cc1 [Compound 8]
>64,2.37,>64,21.3,7.11,–,–,–,–,–,Nc1nc(N)c2c(n1)c(-c1ccc(F)cc1)cc1c2ccn1Cc1ccc(F)cc1 [Compound 52]
7.11,0.03,7.11,0.09,0.09,–,–,–,–,–,N#Cc1ccc(Cn2ccc3c4c(N)nc(N)nc4ccc32)s1 [Compound 57]
21.3,0.09,7.11,0.26,0.26,–,–,–,–,–,Nc1nc(N)c2c(ccc3c2ccn3Cc2ccc([N+](=O)[O-])cc2)n1 [Compound 34]
21.3,0.09,64,0.79,2.37,–,–,–,–,–,COc1ccc(-c2cc3c(ccn3Cc3ccc(F)cc3)c3c(N)nc(N)nc23)cc1 [Compound 41]
–,–,–,–,–,2.37,0.01,2.37,0.088,0.088,C#Cc1ccc(Cn2ccc3c4c(N)nc(N)nc4ccc32)cc1 [Compound 1]
7.11,0.01,7.11,0.26,0.09,–,–,–,–,–,COc1ccc(Cn2ccc3c4c(N)nc(N)nc4ccc32)c(Cl)c1 [Compound 65]
>64,0.26,>64,>64,2.37,–,–,–,–,–,Nc1nc(N)c2c(ccc3c2ccn3Cc2ccc(C#Cc3ccccc3)cc2)n1 [Compound 23]
21.3,0.09,7.11,0.79,0.26,–,–,–,–,–,CC#Cc1ccc(Cn2ccc3c4c(N)nc(N)nc4ccc32)cc1 [Compound 25]
7.11,0.01,2.37,0.26,0.09,–,–,–,–,–,COc1cc(Cn2ccc3c4c(N)nc(N)nc4ccc32)cc(OC)c1 [Compound 66]
7.11,0.09,7.11,0.79,0.26,–,–,–,–,–,CCc1ccc(Cn2ccc3c4c(N)nc(N)nc4ccc32)cc1 [Compound 31]
21.3,0.09,7.11,2.37,0.26,–,–,–,–,–,CC(C)C#Cc1ccc(Cn2ccc3c4c(N)nc(N)nc4ccc32)cc1 [Compound 15]
>64,0.79,>64,21.3,2.37,–,–,–,–,–,Nc1nc(NC2CC2)nc2ccc3c(ccn3Cc3ccc(C#Cc4ccccc4)cc3)c12 [Compound 19]
